Test results as given in article PMC11351036, “Biochemical characterization of a SusD-like protein involved in β-1,3-glucan utilization by an uncultured cow rumen Bacteroides” (mSphere, 2024).

Biological target: T1, 41O1_SusD-like (uncultured Bacteroides sp., UniProt Z9V4V4YR65)
T1 construct: mature protein without predicted lipoprotein signal peptide, N-terminal 6-His tag (pET-28a(+)), E. coli BL21(DE3), codon-optimized gene, 57 kDa, monomer fraction used
T1 sequence (Z9V4V4YR65 22-505): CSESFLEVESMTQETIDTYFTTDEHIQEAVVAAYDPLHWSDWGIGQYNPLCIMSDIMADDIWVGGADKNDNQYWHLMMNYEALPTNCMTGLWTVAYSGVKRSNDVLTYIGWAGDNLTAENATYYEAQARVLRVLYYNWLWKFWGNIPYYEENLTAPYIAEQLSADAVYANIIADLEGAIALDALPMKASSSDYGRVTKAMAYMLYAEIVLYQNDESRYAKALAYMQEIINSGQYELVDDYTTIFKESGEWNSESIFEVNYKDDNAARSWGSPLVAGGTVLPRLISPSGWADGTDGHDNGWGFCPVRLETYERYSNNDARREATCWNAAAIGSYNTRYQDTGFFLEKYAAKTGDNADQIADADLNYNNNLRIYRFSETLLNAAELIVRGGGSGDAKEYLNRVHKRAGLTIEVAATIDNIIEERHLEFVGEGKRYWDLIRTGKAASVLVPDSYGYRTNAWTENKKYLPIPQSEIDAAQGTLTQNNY
Experiment: thermal shift, Tycho NT.[…] intrinsic fluorescence
Assay type: binding
Conditions: 0.5% (w/v) ligand, 10 µM protein, 20 mM Tris-HCl, 150 mM NaCl, pH 7.4

SMILES: OC[C@H]1O[C@@H](O[C@H]2[C@H](O)[C@@H](O)[C@H](O[C@H]3[C@H](O)[C@@H](O)C(O)O[C@@H]3CO)O[C@@H]2CO)[C@H](O)[C@@H](O)[C@@H]1O (some centres unmarked) [Cellotriose]
- ∆T°C: 1.2 °C

SMILES: OC[C@H]1O[C@@H](O[C@@H]2[C@@H](O)[C@H](O[C@H]3[C@H](O)[C@@H](CO)OC(O)[C@@H]3O)O[C@H](CO)[C@H]2O)[C@H](O)[C@@H](O)[C@@H]1O (some centres unmarked) [Laminaritriose]
- ∆T°C: 4.7 °C
